Several values for one entry are separate records, joined by “and”; a condition that tells them apart may be missing. Equal values may be shown once. Inconclusive results and toxic doses are left out. Rule for the calls: active = survival T/C of 150% or more; inactive = T/C below 125% in these data.
System: BDF1 mice, B16 melanoma ip, median survival T/C
Assay: NCI In Vivo Anticancer Drug Screen. Data for tumor model B16 Melanoma (intraperitoneal) in B6D2F1 (BDF1) mice
Details: endpoint: median survival time, higher = longer survival
In short: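 Vehicle-treated animals serve as the reference (C); treated animals (T) are scored for survival or tumor size after tumor transplantation.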

[1] = dose: 100.0 mg/kg/injection, schedule: Q01DX009 (ip), vehicle: Klucel (hydroxypropylcellulose) (HPC)
[2] = dose: 200.0 mg/kg/injection, schedule: Q01DX009 (ip), vehicle: Klucel (hydroxypropylcellulose) (HPC)
[3] = dose: 100.0 mg/kg/injection, schedule: Q01DX009 (ip), vehicle: saline with Tween-80
[4] = dose: 100.0 mg/kg/injection, schedule: Q04DX003 (ip), vehicle: saline with Tween-80
[5] = dose: 200.0 mg/kg/injection, schedule: Q01DX009 (ip), vehicle: saline with Tween-80
[6] = dose: 200.0 mg/kg/injection, schedule: Q04DX003 (ip), vehicle: saline with Tween-80
[7] = dose: 400.0 mg/kg/injection, schedule: Q01DX009 (ip), vehicle: saline with Tween-80
[8] = dose: 400.0 mg/kg/injection, schedule: Q04DX003 (ip), vehicle: saline with Tween-80
[9] = dose: 25.0 mg/kg/injection, schedule: Q01DX009 (ip), vehicle: saline with Tween-80
[10] = dose: 50.0 mg/kg/injection, schedule: Q01DX009 (ip), vehicle: saline with Tween-80
[11] = dose: 50.0 mg/kg/injection, schedule: Q04DX003 (ip), vehicle: saline with Tween-80
[12] = dose: 100.0 mg/kg/injection, schedule: Q01DX009 (ip), vehicle: saline
[13] = dose: 3.12 mg/kg/injection, schedule: Q01DX009 (ip), vehicle: Klucel (hydroxypropylcellulose) (HPC)
[14] = dose: 6.25 mg/kg/injection, schedule: Q01DX009 (ip), vehicle: Klucel (hydroxypropylcellulose) (HPC)
[15] = dose: 12.5 mg/kg/injection, schedule: Q01DX009 (ip), vehicle: Klucel (hydroxypropylcellulose) (HPC)
[16] = dose: 25.0 mg/kg/injection, schedule: Q01DX009 (ip), vehicle: Klucel (hydroxypropylcellulose) (HPC)
[17] = dose: 50.0 mg/kg/injection, schedule: Q01DX009 (ip), vehicle: Klucel (hydroxypropylcellulose) (HPC)
[18] = dose: 400.0 mg/kg/injection, schedule: Q01DX009 (ip), vehicle: Klucel (hydroxypropylcellulose) (HPC)

Measured: T/C

Clc1nc2ccccc2nc1CI
inactive: dose: 0.04 mg/kg/injection, schedule: Q01DX009 (ip), vehicle: saline with Tween-80 97 % of control | dose: 0.08 mg/kg/injection, schedule: Q01DX009 (ip), vehicle: saline with Tween-80 97 % of control | dose: 0.15 mg/kg/injection, schedule: Q01DX009 (ip), vehicle: saline with Tween-80 97 % of control | dose: 0.3 mg/kg/injection, schedule: Q01DX009 (ip), vehicle: saline with Tween-80 92 % of control | dose: 0.31 mg/kg/injection, schedule: Q01DX009 (ip), vehicle: saline with Tween-80 94 % of control | dose: 0.62 mg/kg/injection, schedule: Q01DX009 (ip), vehicle: saline with Tween-80 91 % of control | dose: 1.25 mg/kg/injection, schedule: Q01DX009 (ip), vehicle: saline with Tween-80 100 % of control | dose: 2.5 mg/kg/injection, schedule: Q01DX009 (ip), vehicle: saline with Tween-80 97 % of control | dose: 5.0 mg/kg/injection, schedule: Q01DX009 (ip), vehicle: saline with Tween-80 88 % of control

O=C1NNC(=O)NN1
inactive: [1] 118 % of control | [2] 106 % of control

C[C@]12CC[C@H](OC3OC(CO)C(O)C(O)C3O)C[C@H]1CC[C@@H]1[C@@H]2CC[C@]2(C)[C@@H](C3=CCOC3=O)CC[C@]12O (some centres undefined)
inactive: dose: 0.5 mg/kg/injection, schedule: Q01DX009 (ip), vehicle: saline 107 % of control | dose: 1.0 mg/kg/injection, schedule: Q01DX009 (ip), vehicle: saline 92 % of control | dose: 2.0 mg/kg/injection, schedule: Q01DX009 (ip), vehicle: saline 105 % of control

O=C(/C=C\c1ccccc1)/C=C/c1ccccc1
inactive: [3] 104 % of control | [4] 102 % of control | [5] 96 % of control | [6] 100 % of control | [7] 92 % of control | [8] 102 % of control

CC(=O)ON=C1C=CC(=C(C#N)c2ccccc2)C=C1
inactive: [9] 86 % of control | [10] 86 % of control | [3] 92 % of control

COc1ccc(Cl)cc1N
inactive: [9] 95 % of control | [10] 100 % of control | [3] 105 % of control

COc1ccc(C(=O)C(C)C(O)C(=O)O)c(O)c1C (centres undefined)
inactive: dose: 100.0 mg/kg/injection, schedule: Q01DX009 (ip), vehicle: other 93 % of control

C=CCCCCCCCCC(=O)N(CCOC)CCOC
inactive: [9] 115 % of control | dose: 25.0 mg/kg/injection, schedule: Q04DX003 (ip), vehicle: saline with Tween-80 97 % of control | [10] 102 % of control | [11] 91 % of control | [4] 89 % of control

Cc1cc(O)ccc1[N+](=O)[O-]
inactive: dose: 25.0 mg/kg/injection, schedule: Q01DX009 (ip), vehicle: saline 119 % of control | dose: 50.0 mg/kg/injection, schedule: Q01DX009 (ip), vehicle: saline 123 % of control | [12] 104 % of control

Cc1ccc(C(=O)CCCCl)cc1C
inactive: [3] 100 % of control | [5] 106 % of control | [7] 97 % of control

CCCCCCCCCCCCc1ccc(CS)cc1
inactive: [12] 92 % of control | dose: 200.0 mg/kg/injection, schedule: Q01DX009 (ip), vehicle: saline 89 % of control

O=C1NC(c2ccccc2)(c2ccccc2)C(=O)N1SC(Cl)(Cl)Cl
inactive: [13] 106 % of control | [14] 92 % of control | [15] 103 % of control | [16] 97 % of control | [17] 91 % of control

CCOC(=O)C(=CN1CCOCC1)C(=O)OCC
inactive: [3] 90 % of control | [4] 100 % of control | [5] 98 % of control | [6] 102 % of control | [7] 98 % of control | [8] 109 % of control

CCC(CC)CC1CN2CCc3cc(OC)c(OC)cc3C2CC1(O)CC (centres undefined)
inactive: [13] 102 % of control | [14] 102 % of control | [15] 102 % of control | [16] 106 % of control

O=C(Nc1nncs1)c1cccs1
inactive: dose: 12.5 mg/kg/injection, schedule: Q01DX009 (ip), vehicle: saline with Tween-80 101 % of control | [9] 109 % of control | [10] 121 % of control | [3] 109 % of control | [5] 106 % of control

CC[P+](c1ccccc1)(c1ccccc1)c1ccccc1
inactive: dose: 1.25 mg/kg/injection, schedule: Q04DX003 (ip), vehicle: saline 97 % of control | dose: 2.5 mg/kg/injection, schedule: Q04DX003 (ip), vehicle: saline 93 % of control | dose: 5.0 mg/kg/injection, schedule: Q04DX003 (ip), vehicle: saline 95 % of control

C=CCNCC(O)c1ccccc1 (centres undefined)
inactive: [16] 103 % of control | [17] 106 % of control | [1] 109 % of control

[Cu+2].[NH-]CC(=O)O.[NH-]CC(=O)O
inactive: dose: 2.5 mg/kg/injection, schedule: Q01DX009 (ip), vehicle: saline 97 % of control | dose: 2.5 mg/kg/injection, schedule: Q04DX003 (ip), vehicle: saline with Tween-80 121 % of control | dose: 5.0 mg/kg/injection, schedule: Q01DX009 (ip), vehicle: saline 95 % of control and 102 % of control | dose: 5.0 mg/kg/injection, schedule: Q04DX003 (ip), vehicle: saline with Tween-80 115 % of control | dose: 10.0 mg/kg/injection, schedule: Q01DX009 (ip), vehicle: saline 95 % of control and 100 % of control | dose: 10.0 mg/kg/injection, schedule: Q04DX003 (ip), vehicle: saline with Tween-80 100 % of control

C=C1COC(O)(C2OCOC(C3CC(=O)NC(=O)C3)C2O)C1C (centres undefined)
inactive: dose: 2.0 micrograms/kg/injection, schedule: Q01DX009 (ip), vehicle: water 104 % of control | dose: 4.0 micrograms/kg/injection, schedule: Q01DX009 (ip), vehicle: water 104 % of control | dose: 8.0 micrograms/kg/injection, schedule: Q01DX009 (ip), vehicle: water 100 % of control | dose: 16.0 micrograms/kg/injection, schedule: Q01DX009 (ip), vehicle: water 108 % of control | dose: 32.0 micrograms/kg/injection, schedule: Q01DX009 (ip), vehicle: water 103 % of control

Cc1cccc(C)c1NC(=O)Nc1cccc(Cl)c1
inactive: [1] 100 % of control | dose: 100.0 mg/kg/injection, schedule: Q04DX003 (ip), vehicle: Klucel (hydroxypropylcellulose) (HPC) 100 % of control | [2] 100 % of control | dose: 200.0 mg/kg/injection, schedule: Q04DX003 (ip), vehicle: Klucel (hydroxypropylcellulose) (HPC) 100 % of control | [18] 86 % of control | dose: 400.0 mg/kg/injection, schedule: Q04DX003 (ip), vehicle: Klucel (hydroxypropylcellulose) (HPC) 100 % of control

CCN(CC)[P+](c1ccccc1O)(N(CC)CC)N(CC)CC
inactive: dose: 1.56 mg/kg/injection, schedule: Q01DX009 (ip), vehicle: saline 100 % of control | dose: 3.12 mg/kg/injection, schedule: Q01DX009 (ip), vehicle: saline 105 % of control | dose: 6.25 mg/kg/injection, schedule: Q01DX009 (ip), vehicle: saline 107 % of control and 114 % of control

C[C@]1(O)CC[C@H]2[C@@H]3CCC4=CC(=O)CC[C@]4(C)[C@@]3(F)[C@@H](O)C[C@@]21C
inactive: dose: 12.5 mg/kg/injection, schedule: Q02DX009 (ip), vehicle: Klucel (hydroxypropylcellulose) (HPC) 92 % of control | dose: 25.0 mg/kg/injection, schedule: Q02DX009 (ip), vehicle: Klucel (hydroxypropylcellulose) (HPC) 100 % of control | dose: 50.0 mg/kg/injection, schedule: Q02DX009 (ip), vehicle: Klucel (hydroxypropylcellulose) (HPC) 120 % of control | dose: 100.0 mg/kg/injection, schedule: Q02DX009 (ip), vehicle: Klucel (hydroxypropylcellulose) (HPC) 107 % of control | dose: 200.0 mg/kg/injection, schedule: Q02DX009 (ip), vehicle: Klucel (hydroxypropylcellulose) (HPC) 99 % of control | dose: 400.0 mg/kg/injection, schedule: Q02DX009 (ip), vehicle: Klucel (hydroxypropylcellulose) (HPC) 92 % of control

O=CNNC=O
inactive: [3] 86 % of control | [5] 95 % of control | [7] 90 % of control

Cc1ccc(C)c(NC(=O)Nc2ccccc2)c1
inactive: [1] 96 % of control | [2] 110 % of control | [18] 96 % of control

CC(C)C1CC2CCC3C(C)(C(=O)O)CCCC3(C)C2CC1CO (centres undefined)
inactive: [10] 99 % of control | [11] 100 % of control | [3] 96 % of control | [4] 97 % of control | [5] 94 % of control | [6] 90 % of control
